Reference: patent US11678665B2, “Pyrazine-4-carbamate or -urea derivatives as herbicides” (Syngenta Participations AG, priority 2017, dated 2023)

What was measured:
Type in all cases: in vivo
Lolium perenne (LOLPE) [1] = test: Post-emergence herbicidal activity, LOLPE; set-up: key: 5=total damage to plant; 0=no damage to plant; details: 1000 g/ha, sprayed post-emergence (8 days cultivation), evaluated after 13 days, damage score 0-5
Method: (§1) Seeds of a variety of test species were sown in standard soil in pots: Triticum aestivium (TRZAW), Avena fatua (AVEFA), Alopecurus myosuroides (ALOMY), Echinochloa crus-galli (ECHCG), Lolium perenne (LOLPE), and Setaria faberi (SETFA). After 8 days cultivation (post-emergence) under controlled conditions in a glasshouse (at 24/16° C., day/night; 14 hours light; 65% humidity), the plants were sprayed with an aqueous spray solution derived from the formulation of the technical active ingredient in acetone/water (50:50) solution containing 0.5% Tween 20 (polyoxyethelyene sorbitan monolaurate, CAS RN 9005-64-5). The test plants were then grown in a glasshouse under controlled conditions (at 24/16° C., day/night; 14 hours light; 65% humidity) and watered twice daily. After 13 days, the test was evaluated (5=total damage to plant; 0=no damage to plant).

[2] = tested on: Alopecurus myosuroides (ALOMY); test: Post-emergence herbicidal activity, ALOMY; set-up: key: 5=total damage to plant; 0=no damage to plant; details: 1000 g/ha, sprayed post-emergence (8 days cultivation), evaluated after 13 days, damage score 0-5
Method: as §1

[3] = tested on: Triticum aestivium (TRZAW); test: Pre-emergence herbicidal activity, TRZAW; set-up: key: 5=total damage to plant; 0=no damage to plant; details: 1000 g/ha, sprayed pre-emergence, evaluated after 13 days, damage score 0-5
Method: as §1, with “After” for “After 8 days”, “for one day (pre-emergence)” for “(post-emergence)”

Avena fatua (AVEFA) [4] = test: Post-emergence herbicidal activity, AVEFA; details: 1000 g/ha, sprayed post-emergence (8 days cultivation), evaluated after 13 days, damage score 0-5
Method: as §1

[5] = tested on: Echinochloa crus-galli (ECHCG); test: Pre-emergence herbicidal activity, ECHCG; details: 1000 g/ha, sprayed pre-emergence, evaluated after 13 days, damage score 0-5
Method: as §1, with “After” for “After 8 days”, “for one day (pre-emergence)” for “(post-emergence)”

Avena fatua (AVEFA) [6] = test: Pre-emergence herbicidal activity, AVEFA; set-up: key: 5=total damage to plant; 0=no damage to plant; details: 1000 g/ha, sprayed pre-emergence, evaluated after 13 days, damage score 0-5
Method: as §1, with “After” for “After 8 days”, “for one day (pre-emergence)” for “(post-emergence)”

Setaria faberi (SETFA) [7] = test: Pre-emergence herbicidal activity, SETFA; set-up: key: 5=total damage to plant; 0=no damage to plant; details: 1000 g/ha, sprayed pre-emergence, evaluated after 13 days, damage score 0-5
Method: as §1, with “After” for “After 8 days”, “for one day (pre-emergence)” for “(post-emergence)”

[8] = tested on: Triticum aestivium (TRZAW); test: Post-emergence herbicidal activity, TRZAW; set-up: key: 5=total damage to plant; 0=no damage to plant; details: 1000 g/ha, sprayed post-emergence (8 days cultivation), evaluated after 13 days, damage score 0-5
Method: as §1

[9] = tested on: Alopecurus myosuroides (ALOMY); test: Pre-emergence herbicidal activity, ALOMY; set-up: key: 5=total damage to plant; 0=no damage to plant; details: 1000 g/ha, sprayed pre-emergence, evaluated after 13 days, damage score 0-5
Method: as §1, with “After” for “After 8 days”, “for one day (pre-emergence)” for “(post-emergence)”

[10] = tested on: Echinochloa crus-galli (ECHCG); test: Post-emergence herbicidal activity, ECHCG; set-up: key: 5=total damage to plant; 0=no damage to plant; details: 1000 g/ha, sprayed post-emergence (8 days cultivation), evaluated after 13 days, damage score 0-5
Method: as §1

Setaria faberi (SETFA) [11] = test: Post-emergence herbicidal activity, SETFA; set-up: key: 5=total damage to plant; 0=no damage to plant; details: 1000 g/ha, sprayed post-emergence (8 days cultivation), evaluated after 13 days, damage score 0-5
Method: as §1

Lolium perenne (LOLPE) [12] = test: Pre-emergence herbicidal activity, LOLPE; set-up: key: 5=total damage to plant; 0=no damage to plant; details: 1000 g/ha, sprayed pre-emergence, evaluated after 13 days, damage score 0-5
Method: as §1, with “After” for “After 8 days”, “for one day (pre-emergence)” for “(post-emergence)”

Row | SMILES | Control of weed species after post-emergence application: LOLPE (Lolium perenne (LOLPE) [1]) | Control of weed species after post-emergence application: ALOMY [2] | Control of weed species after pre-emergence application: TRAZW [3] | Control of weed species after post-emergence application: AVEFA (Avena fatua (AVEFA) [4]) | Control of weed species after pre-emergence application: ECHCG [5] | Control of weed species after pre-emergence application: AVEFA (Avena fatua (AVEFA) [6]) | Control of weed species after pre-emergence application: SETFA (Setaria faberi (SETFA) [7]) | Control of weed species after post-emergence application: TRAZW [8] | Control of weed species after pre-emergence application: ALOMY [9] | Control of weed species after post-emergence application: ECHCG [10] | Control of weed species after post-emergence application: SETFA (Setaria faberi (SETFA) [11]) | Control of weed species after pre-emergence application: LOLPE (Lolium perenne (LOLPE) [12])
1 | CCC(=O)N(C(=O)CC)c1ncc(-c2cncc(F)c2)nc1C(F)(F)F [Compound I1] | 1 | 0 | 0 | 2 | 2 | 1 | 3 | 0 | 0 | 4 | 4 | 1
2 | CCC(=O)Nc1ncc(-c2cncc(F)c2)nc1C [Compound I2] | 0 | 0 | 0 | 1 | 2 | 0 | 3 | 0 | 0 | 4 | 4 | 0
3 | CC(=O)Nc1ncc(-c2cncc(F)c2)nc1C(F)(F)F [Compound I3, 2-(acetylamino)-3-trifluoromethyl-5-(5-fluoropyrid-3-yl)pyrazine] | 1 | 1 | 0 | 3 | 3 | 1 | 4 | 1 | 0 | 3 | 4 | 0
4 | CC(=O)N(C(C)=O)c1ncc(-c2cncc(F)c2)nc1C(F)(F)F [Compound I4, 2-(diacetylamino)-3-trifluoromethyl-5-(5-fluoropyrid-3-yl)pyrazine] | 1 | 0 | 3 | 2 | 3 | 1 | 4 | 0 | 0 | 3 | 4 | 0
5 | CC(=O)N(C(C)=O)c1ncc(-c2cncc(F)c2)nc1C [Compound I5, 2-(diacetylamino)-3-methyl-5-(5-fluoropyrid-3-yl)pyrazine] | 1 | 0 | 0 | 1 | 2 | 0 | 3 | 1 | 0 | 2 |  | 1
6 | CC(=O)N(C)c1ncc(-c2cncc(F)c2)nc1C [Compound I6] | 2 | 1 | 0 | 3 | 3 | 1 | 5 | 1 | 0 | 4 | 5 | 0
7 | CC(=O)N(C(C)=O)c1ncc(-c2cncnc2)nc1C(F)(F)F [Compound I8] | 1 | 1 | 0 | 2 | 2 | 0 | 4 | 1 | 0 | 4 | 5 | 1
8 | CC(=O)Nc1ncc(-c2cncc(F)c2)nc1C [Compound I9] | 0 | 0 | 0 | 2 | 1 | 0 | 4 | 0 | 0 | 2 | 3 | 0
9 | COCCC(=O)Nc1ncc(-c2cncc(F)c2)nc1C [Compound I10] | 0 | 0 | 0 | 1 | 2 | 0 | 2 | 0 | 0 | 3 | 2 | 0
10 | COCCC(=O)N(C(=O)CCOC)c1ncc(-c2cncc(F)c2)nc1C(F)(F)F [Compound I11] | 1 | 0 | 1 | 4 | 3 | 0 | 4 | 1 | 0 | 5 | 5 | 0
11 | CCC(=O)N(C(=O)CC)c1ncc(-c2cncnc2)nc1C(F)(F)F [Compound I12] | 1 | 1 | 0 | 2 | 2 | 1 | 3 | 1 | 0 | 3 | 4 | 0
